Laboratory results as given in patent US20240285635A1, “USE OF PYRROLOPYRIMIDINE COMPOUND AND PHARMACEUTICAL COMPOSITION THEREOF FOR TREATING CHRONIC GRAFT VERSUS HOST DISEASE” (CHIA TAI TIANQING PHARMACEUTICAL GROUP CO., LTD., priority 2021, published 2024).
“And” between values parts separate entries of the source, which are not always exact repeats. Equal entries are not always repeated. “Also recorded” adds a separate entry of the source.

System: glucocorticoid-refractory/dependent moderate and severe cGVHD subjects
Assay: Clinical study of tablets of the compound of formula I in glucocorticoid-refractory/dependent moderate and severe cGVHD subjects
Type: in vivo, human
Design: key to C1 organ score and efficacy: efficacy / C3 organ score and efficacy: efficacy / C6 organ score and efficacy: efficacy / C9 organ score and efficacy: efficacy / C12 organ score and efficacy: efficacy: Complete response (CR): all reversible clinical symptoms of cGVHD were completely alleviated; Partial response (PR): there was improvement in at least one organ or site, but no improvement in all other organs or sites; Stable disease (SD): cGVHD clinical performance was not worsened compared to baseline; Disease progression (PD): any one organ or site was worsened
Procedure: As used herein, 2014 NIH cGVHD meeting consensus criteria was used for clinical diagnosis, disease grading, and evaluation of disease status or effectiveness.
As used herein, the severity of adverse events was determined using the NCI-CTC AE 5.0 criteria.
The subjects of the study were glucocorticoid-refractory/dependent moderate and severe cGVHD subjects. The safety and the tolerability of the tablets of the compound of formula I in the glucocorticoid-refractory/dependent moderate and severe cGVHD subjects were evaluated, and the efficacy and the safety of the tablets of the compound of formula I in the glucocorticoid-refractory/dependent moderate and severe cGVHD subjects were further evaluated.
Method of administration: orally administered twice daily at fasting, with 28 consecutive days of administration as one treatment cycle.
Drug: the tablets of the compound of formula I with 5 mg or 20 mg of the active ingredient, the compound of formula I being its stereoisomer, a compound of formula II
During the study, the investigator would evaluate the cGVHD activity through NIH consensus on cGVHD to define the response effect and make a record accordingly.
Complete response (CR): all reversible clinical symptoms of cGVHD were completely alleviated. Irreversible clinical manifestations would be defined by NIH consensus criteria.
Partial response (PR): there was improvement in at least one organ or site, but no improvement in all other organs or sites.
Stable disease (SD): cGVHD clinical performance was not worsened compared to baseline.
Disease progression (PD): any one organ or site was worsened. In addition, the emergence of new clinical manifestations of cGVHD was also counted as progression.
Objective response rate (ORR): refers to the percentage of subjects in complete response (CR) or partial response (PR) as determined by the investigator according to NIH cGVHD response assessment.
Best objective response rate (ORR): refers to the percentage of subjects whose best response was complete response (CR) or partial response (PR) as determined by the investigator according to NIH cGVHD response assessment.

[1] = 10 mg bid oral, cycle C1, individual subjects
[2] = 10 mg bid oral, cycle C1, individual subjects 1-4
[3] = 10 mg bid oral, cycle C3, individual subjects
[4] = 10 mg bid oral, cycle C3, individual subjects 1-4
[5] = 10 mg bid oral, cycle C6, individual subjects
[6] = 10 mg bid oral, cycle C6, individual subjects 1-4
[7] = 10 mg bid oral, cycle C9, individual subjects
[8] = 10 mg bid oral, cycle C9, individual subjects 1-4
[9] = 10 mg bid oral, cycle C12, individual subjects
[10] = 10 mg bid oral, cycle C12, individual subjects 1-2
[11] = 15 mg bid oral, cycle C1, individual subjects
[12] = 15 mg bid oral, cycle C1, individual subjects 5-8
[13] = 15 mg bid oral, cycle C3, individual subjects
[14] = 15 mg bid oral, cycle C3, individual subjects 5-8
[15] = 15 mg bid oral, cycle C6, individual subjects
[16] = 15 mg bid oral, cycle C6, individual subjects 5-8
[17] = 15 mg bid oral, cycle C9, subject 5
[18] = of the patients evaluated in Table 2, 10 or 15 mg bid

N#CC[C@H](C1CCCC1)n1cc(-c2ncnc3[nH]ccc23)c(N)n1 [compound of formula I]
C1 organ score: esophagus [1]: 1 point for points | C1 organ score: eye [1]: skin, 1 point points (2×) and 1 point for eye, points (2×) | C1 organ score: joint [1]: 1 point for points and 1 points | C1 organ score: lung [1]: 3 points for (2×) and 0 points for | C1 organ score: lung, percentage in parentheses [1]: lung (34.4%), and lung (81.8%), and 25% | C1 organ score: oral cavity [1]: 1 point for points | C1 organ score: skin [1]: 1 point for points and 3 points for | C1 organ score: upper digestive tract [1]: 1 point for points | C1 organ score and efficacy: comprehensive score [2]: score 6;; also recorded: score 1;; also recorded: score 2; | C1 organ score and efficacy: efficacy [2]: efficacy: PR | C3 organ score: esophagus [3]: 1 point for points | C3 organ score: eye [3]: 1 point for eye, points | C3 organ score: joint [3]: 1 point for points and 1 points | C3 organ score: joint fascia [3]: 2 points for | C3 organ score: lung [3]: 0 points for | C3 organ score: lung, percentage in parentheses [3]: lung (31%), and lung (81.0%), and 28.1% | C3 organ score: skin [3]: 1 point for points | C3 organ score: upper digestive tract [3]: 0 points for | C3 organ score and efficacy: comprehensive score [4]: score 5;; also recorded: score 1; | C3 organ score and efficacy: efficacy [4]: efficacy: PR | C6 organ score: esophagus [5]: 1 point for points | C6 organ score: eye [5]: 1 point for eye, points | C6 organ score: joint [5]: 1 point for points and 1 points | C6 organ score: joint fascia [5]: 2 points for | C6 organ score: lung [5]: 3 points for (2×) and 0 points for | C6 organ score: lung, percentage in parentheses [5]: lung (33%), and lung (80%), and 25.0% | C6 organ score: skin [5]: 1 point for points and 2 points for | C6 organ score: upper digestive tract [5]: 0 points for | C6 organ score and efficacy: comprehensive score [6]: score 5;; also recorded: score 1; | C6 organ score and efficacy: efficacy [6]: efficacy: PR | C9 organ score: esophagus [7]: 1 point for points and 0 points for | C9 organ score: eye [7]: skin, 0 points (2×) and 1 point for eye, points (2×) | C9 organ score: joint [7]: 1 point for points and 1 points | C9 organ score: lung [7]: 3 points for (2×) and 0 points for | C9 organ score: lung, percentage in parentheses [7]: lung (35.1%), and 26.6% | C9 organ score: skin [7]: 0 points for | C9 organ score: upper digestive tract [7]: 0 points for | C9 organ score and efficacy: comprehensive score [8]: score 5;; also recorded: score 0;; also recorded: score 1; | C9 organ score and efficacy: efficacy [8]: efficacy: PR; also recorded: efficacy: CR | C12 organ score: esophagus [9]: 1 point for points | C12 organ score: eye [9]: skin, 0 points | C12 organ score: joint fascia [9]: 2 points for | C12 organ score: lung [9]: 3 points for | C12 organ score: lung, percentage in parentheses [9]: lung (35.1%), | C12 organ score: skin [9]: 0 points for | C12 organ score: upper digestive tract [9]: 0 points for | C12 organ score and efficacy: comprehensive score [10]: score 5;; also recorded: score 0; | C12 organ score and efficacy: efficacy [10]: efficacy: PR; also recorded: efficacy: CR | C1 organ score: esophagus [11]: 0 points for | C1 organ score: eye [11]: skin, 1 point points; also recorded: skin, 2 points | C1 organ score: joint fascia [11]: 1 points and 1 point for points | C1 organ score: lower digestive tract [11]: 1 point for points | C1 organ score: lung [11]: tract, 3 points and 3 points for | C1 organ score: lung, percentage in parentheses [11]: 20.5% and lung (28.7%), and lung (55%), | C1 organ score: skin [11]: 1 point for points and 3 points for | C1 organ score and efficacy: comprehensive score [12]: score 8;; also recorded: score 6;; also recorded: score 3;; also recorded: score 7; | C1 organ score and efficacy: efficacy [12]: efficacy: PR; also recorded: efficacy: SD | C3 organ score: esophagus [13]: 0 points for | C3 organ score: joint fascia [13]: 1 points and 1 point for points and 2 points for | C3 organ score: lower digestive tract [13]: 1 point for points | C3 organ score: lung [13]: tract, 3 points | C3 organ score: lung, percentage in parentheses [13]: 17% and lung (27.8%), and lung (55%), | C3 organ score: skin [13]: 1 point for points | C3 organ score and efficacy: comprehensive score [14]: score 8;; also recorded: score 5;; also recorded: score 2;; also recorded: score 7; | C3 organ score and efficacy: efficacy [14]: efficacy: PR; also recorded: efficacy: SD | C6 organ score: esophagus [15]: 0 points for and 1 point for points | C6 organ score: joint fascia [15]: 1 points and 0 points for and 2 points for | C6 organ score: lower digestive tract [15]: 1 point for points | C6 organ score: lung [15]: tract, 3 points and 3 points for and 2 points for | C6 organ score: lung, percentage in parentheses [15]: 15.9% and lung (28.4%), and lung (52.7%), | C6 organ score: skin [15]: 2 points for (2×) and 1 point for points (2×) | C6 organ score and efficacy: comprehensive score [16]: score 8;; also recorded: score 4;; also recorded: score 2;; also recorded: score 6; | C6 organ score and efficacy: efficacy [16]: efficacy: PR | C9 organ score and efficacy: comprehensive score [17]: score 6; | C9 organ score and efficacy: efficacy [17]: efficacy: PR | C9 organ score: eye [17]: skin, 2 points | C9 organ score: joint fascia [17]: 0 points | C9 organ score: lower digestive tract [17]: 0 points for | C9 organ score: lung [17]: tract, 3 points | C9 organ score: lung, percentage in parentheses [17]: 17.6% | C9 organ score: skin [17]: 0 points for | patients in complete response (CR) [18]: 1 patient | patients in partial response (PR) [18]: 7 patients | clinical benefit in the treatment of chronic graft-versus-host disease (patients evaluated in Table 2): clinical benefits | tolerability and safety (tablets, cGVHD subjects): good tolerability and safety
